The record followed here is PubChem BioAssay (NCI).

Each structure is given as a SMILES string.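 Cells were grown in 96-well plates and exposed to each compound for 48 hours at five concentrations; endpoints were interpolated linearly between bracketing concentrations, or set to the highest concentration if not reached. GI50: concentration for 50% inhibition of growth. TGI is the concentration that stops growth completely.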

The subject of one assay is SK-MEL-5 melanoma. Put plainly: NCI anticancer screen, dose series, 48 h.
Consider `NN(CC(=O)O)CC(=O)O`, for which the TGI is over 100 µM.

In a further assay the test system is SNB-75 CNS. Put plainly: NCI anticancer screen, dose series, 48 h.
In turn, `CNc1ncnc2c1ncn2C1C=CC(COS(N)(=O)=O)C1` (stereo not drawn) showed a TGI of over 100 µM.

For `CCOc1cc(NC(C)=O)ccc1C(=O)NN1C(=O)C(Cl)C1c1ccccc1` (stereo not drawn), the TGI is 29.7 µM.

`CCCCCCCCCCCCCCCCCCNc1ccn(C2OC(COP(=O)(O)OCC3OC(n4cc(F)c(=O)[nH]c4=O)CC3O)C(O)C2O)c(=O)n1` (stereo not drawn) yielded a TGI of over 100 µM.

Take `O=C(CN1CCCCC1)Nc1ccc2sc3ccccc3c(=O)c2n1`: the TGI worked out at 32.3 µM.

`CCOC(=O)/C(C#N)=C\c1ccc(N(CCC(=O)O)CCC(=O)O)c(I)c1` displayed a TGI of over 10 µM.

The compound `CC(=O)C(=C(c1ccccc1)c1ccccc1)c1ccccc1` registered a TGI of over 100 µM.

`C=CCNC(=O)NC(=O)CSC1=NNC2(C(=O)N1)c1ccccc1-c1ccccc12`: the TGI is over 10 µM.

`O=C1/C(=C/c2cccc(F)c2)CCCc2ccccc21` displayed a TGI of 41.3 µM.

Consider `Clc1ccc(NCc2nnc(CCCCCCCCc3nnc(CNc4ccc(Cl)cc4)o3)o2)cc1`, for which the TGI is over 100 µM.

`O=C(ON=C1c2ccccc2C(Br)C(Br)c2ccccc21)c1cc([N+](=O)[O-])cc([N+](=O)[O-])c1` (stereo not drawn) showed a TGI of 30.2 µM.

For `O=C1C(Cl)C2(CC(/C=C/c3ccccc3Cl)=NN2c2cccc(S(=O)(=O)O)c2)N1c1nc2ccccc2s1` (stereo not drawn), the TGI is over 100 µM.

`O=C(CC(=O)N(C(=O)/C=C\c1ccccc1)c1ccc(Cl)cc1)N1N=C(c2ccccc2)C(N=Nc2cccc([N+](=O)[O-])c2)C1=O` (stereo not drawn) had a TGI of 29.3 µM.

Regarding `CCOC(=O)c1cnc2oc3ccc(O)cc3c2c1C`, the GI50 is 26 µM and the TGI stood at 82.9 µM.

In turn, `COC(=O)c1ccc(C)cc1CC1Cc2cc(C)ccc2C1=O` (stereo not drawn) gave a TGI of over 100 µM.

The test system of another assay is U251 CNS. Description: NCI anticancer screen, dose series, 48 h.
For `CNc1ncnc2c1ncn2C1C=CC(COS(N)(=O)=O)C1` (stereo not drawn), the TGI was over 100 µM.

Consider `COC1=C(OC)C(=O)C(Cc2c(Cl)nc3sc(C)cn23)=C(C)C1=O`, for which the TGI amounted to 36 µM.

In turn, `CCCCCCCCCCCCCCCCCCNc1ccn(C2OC(COP(=O)(O)OCC3OC(n4cc(F)c(=O)[nH]c4=O)CC3O)C(O)C2O)c(=O)n1` (stereo not drawn) returned a TGI of over 100 µM.

`O=C(CN1CCCCC1)Nc1ccc2sc3ccccc3c(=O)c2n1` registered a TGI of 35.1 µM.

Compound `O=C(NC1=NCC(CN2CCN(c3ccccc3)CC2)O1)Nc1ccccc1` (stereo not drawn) came in with a TGI of over 100 µM.

`CC(=O)C(=C(c1ccccc1)c1ccccc1)c1ccccc1` registered a TGI of over 100 µM.

Compound `O=C1/C(=C/c2cccc(F)c2)CCCc2ccccc21` yielded a TGI of 29.7 µM.

In turn, `Clc1ccc(NCc2nnc(CCCCCCCCc3nnc(CNc4ccc(Cl)cc4)o3)o2)cc1` showed a TGI of over 100 µM.

The compound `O=C(ON=C1c2ccccc2C(Br)C(Br)c2ccccc21)c1cc([N+](=O)[O-])cc([N+](=O)[O-])c1` (stereo not drawn) displayed a TGI of 30.2 µM.

For the compound `O=C1C(Cl)C2(CC(/C=C/c3ccccc3Cl)=NN2c2cccc(S(=O)(=O)O)c2)N1c1nc2ccccc2s1` (stereo not drawn), the TGI was over 100 µM.

In the case of `O=C(CC(=O)N(C(=O)/C=C\c1ccccc1)c1ccc(Cl)cc1)N1N=C(c2ccccc2)C(N=Nc2cccc([N+](=O)[O-])c2)C1=O` (stereo not drawn), the TGI turned out to be 33.7 µM.

Take `Cc1cc(=O)[nH]c(-n2[nH]c(C)c(CCO)c2=O)n1`: the TGI is over 100 µM.

In turn, `CCOC(=O)c1cnc2oc3ccc(O)cc3c2c1C` yielded a TGI of over 100 µM.

For the compound `COC(=O)c1ccc(C)cc1CC1Cc2cc(C)ccc2C1=O` (stereo not drawn), the TGI was over 100 µM.

The compound `NN(CC(=O)O)CC(=O)O` yielded a TGI of over 100 µM.

A further assay relates to HT29 colon. Put plainly: NCI anticancer screen, dose series, 48 h.
Compound `CNc1ncnc2c1ncn2C1C=CC(COS(N)(=O)=O)C1` (stereo not drawn) registered a TGI of over 100 µM.

The compound `CCOc1cc(NC(C)=O)ccc1C(=O)NN1C(=O)C(Cl)C1c1ccccc1` (stereo not drawn) displayed a TGI of 31.2 µM.

`COC1=C(OC)C(=O)C(Cc2c(Cl)nc3sc(C)cn23)=C(C)C1=O` showed a TGI of 36.3 µM.

`CCCCCCCCCCCCCCCCCCNc1ccn(C2OC(COP(=O)(O)OCC3OC(n4cc(F)c(=O)[nH]c4=O)CC3O)C(O)C2O)c(=O)n1` (stereo not drawn) yielded a TGI of over 84.3 µM.

Compound `O=C(CN1CCCCC1)Nc1ccc2sc3ccccc3c(=O)c2n1` came in with a TGI of over 100 µM.

Take `CCOC(=O)/C(C#N)=C\c1ccc(N(CCC(=O)O)CCC(=O)O)c(I)c1`: the TGI was over 10 µM.

Compound `O=C(NC1=NCC(CN2CCN(c3ccccc3)CC2)O1)Nc1ccccc1` (stereo not drawn) yielded a TGI of over 100 µM.

`CC(=O)C(=C(c1ccccc1)c1ccccc1)c1ccccc1` registered a TGI of over 100 µM.

Compound `COC1(OC)c2no[n+]([O-])c2CCC1O` (stereo not drawn) returned a TGI of over 100 µM.

`C=CCNC(=O)NC(=O)CSC1=NNC2(C(=O)N1)c1ccccc1-c1ccccc12` returned a TGI of over 10 µM.

For `O=C1/C(=C/c2cccc(F)c2)CCCc2ccccc21`, the TGI was 25.9 µM.

As for `Clc1ccc(NCc2nnc(CCCCCCCCc3nnc(CNc4ccc(Cl)cc4)o3)o2)cc1`, the TGI was over 100 µM.

The compound `O=C(ON=C1c2ccccc2C(Br)C(Br)c2ccccc21)c1cc([N+](=O)[O-])cc([N+](=O)[O-])c1` (stereo not drawn) registered a TGI of 37.7 µM.

Compound `O=C1C(Cl)C2(CC(/C=C/c3ccccc3Cl)=NN2c2cccc(S(=O)(=O)O)c2)N1c1nc2ccccc2s1` (stereo not drawn) displayed a TGI of over 100 µM.

With `O=C(CC(=O)N(C(=O)/C=C\c1ccccc1)c1ccc(Cl)cc1)N1N=C(c2ccccc2)C(N=Nc2cccc([N+](=O)[O-])c2)C1=O` (stereo not drawn), the TGI was 15.2 µM.

`Cc1cc(=O)[nH]c(-n2[nH]c(C)c(CCO)c2=O)n1` gave a TGI of over 100 µM.

Compound `CCOC(=O)c1cnc2oc3ccc(O)cc3c2c1C` yielded a TGI of over 100 µM.

With `COC(=O)c1ccc(C)cc1CC1Cc2cc(C)ccc2C1=O` (stereo not drawn), the TGI is over 100 µM.

For the compound `NN(CC(=O)O)CC(=O)O`, the TGI was over 100 µM.

For a further assay, the system named is IGROV1 ovarian. Description: NCI anticancer screen, dose series, 48 h.
Compound `CNc1ncnc2c1ncn2C1C=CC(COS(N)(=O)=O)C1` (stereo not drawn) had a TGI of over 100 µM.

`CCOc1cc(NC(C)=O)ccc1C(=O)NN1C(=O)C(Cl)C1c1ccccc1` (stereo not drawn): the TGI turned out to be 18 µM.

`COC1=C(OC)C(=O)C(Cc2c(Cl)nc3sc(C)cn23)=C(C)C1=O` showed a TGI of 35.5 µM.

`CCCCCCCCCCCCCCCCCCNc1ccn(C2OC(COP(=O)(O)OCC3OC(n4cc(F)c(=O)[nH]c4=O)CC3O)C(O)C2O)c(=O)n1` (stereo not drawn) had a TGI of 35.8 µM.

`O=C(CN1CCCCC1)Nc1ccc2sc3ccccc3c(=O)c2n1`: the TGI came to 37.4 µM.

Compound `CCOC(=O)/C(C#N)=C\c1ccc(N(CCC(=O)O)CCC(=O)O)c(I)c1` registered a TGI of over 10 µM.

Compound `O=C(NC1=NCC(CN2CCN(c3ccccc3)CC2)O1)Nc1ccccc1` (stereo not drawn) showed a TGI of over 100 µM.

In turn, `COC1(OC)c2no[n+]([O-])c2CCC1O` (stereo not drawn) gave a TGI of over 100 µM.

Regarding `C=CCNC(=O)NC(=O)CSC1=NNC2(C(=O)N1)c1ccccc1-c1ccccc12`, the TGI was over 10 µM.

As to `O=C1/C(=C/c2cccc(F)c2)CCCc2ccccc21`, the TGI stood at 24.6 µM.

Regarding `O=C(ON=C1c2ccccc2C(Br)C(Br)c2ccccc21)c1cc([N+](=O)[O-])cc([N+](=O)[O-])c1` (stereo not drawn), the TGI is 26.6 µM.

The compound `O=C1C(Cl)C2(CC(/C=C/c3ccccc3Cl)=NN2c2cccc(S(=O)(=O)O)c2)N1c1nc2ccccc2s1` (stereo not drawn) gave a TGI of over 100 µM.

Compound `O=C(CC(=O)N(C(=O)/C=C\c1ccccc1)c1ccc(Cl)cc1)N1N=C(c2ccccc2)C(N=Nc2cccc([N+](=O)[O-])c2)C1=O` (stereo not drawn) showed a TGI of 48.6 µM.

As for `Cc1cc(=O)[nH]c(-n2[nH]c(C)c(CCO)c2=O)n1`, the TGI is over 100 µM.

With `CCOC(=O)c1cnc2oc3ccc(O)cc3c2c1C`, the GI50 was 86.2 µM and the TGI was over 100 µM.

`COC(=O)c1ccc(C)cc1CC1Cc2cc(C)ccc2C1=O` (stereo not drawn) yielded a TGI of over 100 µM.

Take `NN(CC(=O)O)CC(=O)O`: the TGI is over 100 µM.
